Test results published in patent US10226041B2, “Compositions and methods for improving the quality of processed sperm” (Inguran, LLC, priority 2011, dated 2019).
Several values for one entry are separate records, joined by “and”; a condition that tells them apart may be missing. Identical values can stand only once.

Test system: sex-sorted sperm cells
Experiment: CASA post-thaw motility of sex sorted bull sperm treated with OSR
Assay type: cell-based, bovine
Set-up: key to BCF: beat cross frequency in Hz; key to ALH: lateral head displacement in μm; key to STR / LIN: percent; key to Motile: percent motile sperm; key to VAP / VSL / VCL: velocity in μm/s
Conditions: for ALH / BCF / LIN / Motile / Prog / STR / VAP / VCL / VSL: 3 hr post-thaw
Source text: 5. Sperm Motility Evaluations by CASA. A comparison of viewing chambers and slides can be done in a variety of IVOS instruments, which for example only can be a Hamilton-Thorne IVOS (Hamilton-Thorne, Beverly, Mass.). Instrument settings: image capture; frames per second=60; number of frames=30; cell detection; minimum contrast=50; minimum cell size=5; defaults, cell size=5; cell intensity=50; progressive cells, path velocity=50 um/s; straightness ≥70%; slow cells (um/s); average path velocity (VAP, <30 um/s), straight-line velocity (VSL, <15 um/s). The CASA motility variables measured can be a percentage of total motile sperm (motile), percentage of progressively motile sperm (progressive), VAO, VSL, curvilinear velocity (VCL, um/s), average lateral head displacement (ALK, um) and the number of times the sperm head crosses the mean path/s (BCF, Hz), straight-line sperm motility (STR, %), and linear sperm motility (LIN, %). See for instance, Lenz, R W, et al., J Anim Sci (2011) 89:383-388, incorporated by reference herein in its entirety.
One set of semen from each bull was used as a control while to the remaining sets of semen samples were added vitamin B12, as the antioxidant, at respective concentrations of 0.5 mg/ml and 0.25 mg/ml. For each sample, the same concentration of vitamin B12 was added (i) during the staining process, and (ii) in the catch fluid of the collection vessel. […] Sperm samples were sorted in “High Purity” mode, and the collected sex-sorted sperm were extended with a cryoextender, which in some cases again contained the same concentration of vitamin B12 and the samples were frozen. Three hours after thawing (which is a standard time frame to conduct quality control assessments on sorted frozen thawed sperm samples) the thawed samples were put through CASA, a machine that provides various data on sperm including motility and progressive motility information.
In the tables below: VAP (average path velocity (μm/s)); VSL (straight-line velocity (μm/s)); VCL (curvilinear velocity (μm/s)); ALH (average lateral head displacement (μm)); BCF (the number of times the sperm head crosses the mean path/s in Hz); STR (percent straight-line sperm motility); LIN (percent linear sperm motility); PIA (percent intact acrosomes); motile (percent motile sperm); and progressive (percent progressively motile sperm).
There is no correlation with regard to randomly assigned names such as “Bull A.” Bull A from Example 5 is not the same bull as Bull A from Example 7.
In both cases the concentration of the vitamin B12 was 1 mg/ml. For all other bulls in the table below unless otherwise indicated, the concentration of vitamin B12 added was also 1 mg/ml.
In an additional experiment, motility and progressive motility were checked 3.75 hours after thawing a sex sorted semen sample treated with the antioxidant. The OSR was not added to the control sample. The semen sample was derived from a single bull. 0.25 mg/ml concentration of vitamin B12 was added to the test sample during the staining step, the collecting step (in the catch fluid of the collecting vessel) and in the cryoprotectant extender prior to freezing the sample.
[…] The OSR was not added to the control samples. The semen samples were derived from two Holstein bulls.

[1] = 0.5 mg/ml, 2 step F, 3 hrs post-thaw, Bulls 1-5
[2] = .15 mg/ml, 3 step, Holstein, 1M/straw
[3] = .15 mg/ml, 3 step, Holstein, 2.1M/straw
[4] = .15 mg/ml, 3 step, Jersey, 2.1M/straw
[5] = .25 mg/ml, 3 step, Holstein, 1M/straw
[6] = .25 mg/ml, 3 step, Holstein, 2.1M/straw
[7] = .25 mg/ml, 3 step, Holstein, 5M/straw
[8] = .25 mg/ml, 3 step, Jersey, 2.1M/straw
[9] = .35 mg/ml, 3 step, Holstein, 1M/straw
[10] = .35 mg/ml, 3 step, Holstein, 2.1M/straw
[11] = .35 mg/ml, 3 step, Holstein, 5M/straw
[12] = .5 mg/ml, 3 step, Holstein, 5M/straw

vitamin B12
% Motility (0 hr, 1 step-stain (+−−), Bull C (Jersey), Trial 1): 80% | % Motility (0 hr, 1 step-stain (+−−), Bull C (Jersey), Trial 2): 61% | % Motility (0 hr, 2 step-stain (++−), Bull C (Jersey), Trial 1): 74% | % Motility (0 hr, 2 step-stain (++−), Bull C (Jersey), Trial 2): 57% | % Motility (0 hr, 3 step (+++), Bull C (Jersey), Trial 1): 70% | % Motility (0 hr, 3 step (+++), Bull C (Jersey), Trial 2): 76% | % Motility (0 hr, vitamin B12 0.5 mg/ml, 3 step, Bull A (Jersey)): 60% | % Motility (0 hr, vitamin B12 0.5 mg/ml, 3 step, Bull B (Holstein)): 79% | Motile (percent motile sperm) (0.5 mg/ml, 2 step F (catch fluid + cryoextender), 3 hrs post-thaw, Bulls 1-5): 70.5% and 74.5% and 81.5% and 51% and 63.5% | ALH (average lateral head displacement) [1]: 4 μm and 5 μm | BCF (times sperm head crosses the mean path/s) [1]: 21.5 Hz and 22.5 Hz and 26 Hz and 20.5 Hz and 23 Hz | LIN (percent linear sperm motility) [1]: 61% and 52.5% and 49% and 47% | STR (percent straight-line sperm motility) [1]: 85.5% and 84.5% and 83.5% and 84% and 86.5% | VAP (average path velocity) [1]: 77 μm/s and 56 μm/s and 60 μm/s and 50 μm/s | VCL (curvilinear velocity) [1]: 108 μm/s and 98 μm/s and 109 μm/s and 101 μm/s and 94 μm/s | VSL (straight-line velocity) [1]: 66 μm/s and 51 μm/s and 53 μm/s and 47 μm/s and 45 μm/s | % Motility (3 hr, 1 step-stain (+−−), Bull C (Jersey), Trial 1): 47% | % Motility (3 hr, 2 step-stain (++−), Bull C (Jersey), Trial 1): 57% | % Motility (3 hr, 2 step-stain (++−), Bull C (Jersey), Trial 2): 25% | % Motility (3 hr, 3 step (+++), Bull C (Jersey), Trial 1): 75% | % Motility (3 hr, 3 step (+++), Bull C (Jersey), Trial 2): 42% | % Motility (3 hr, vitamin B12 0.5 mg/ml, 3 step, Bull A (Jersey)): 42% | % Motility (3 hr, vitamin B12 0.5 mg/ml, 3 step, Bull B (Holstein)): 48% | ALH [2]: 4 | BCF [2]: 12 | LIN [2]: 53 | Motile [2]: 48 | Prog [2]: 18 | STR [2]: 88 | VAP [2]: 48 | VCL [2]: 81 | VSL [2]: 42 | ALH [3]: 5 | BCF [3]: 18 | LIN [3]: 48 | Motile [3]: 49 | Prog [3]: 10 | STR [3]: 86 | VAP [3]: 44 | VCL [3]: 79 | VSL [3]: 38 | ALH [4]: 6 | BCF [4]: 15 | LIN [4]: 47 | Motile [4]: 25 | Prog [4]: 4 | STR [4]: 84 | VAP [4]: 42 | VCL [4]: 75 | VSL [4]: 35 | ALH [5]: 4 | BCF [5]: 22 | LIN [5]: 53 | Motile [5]: 48 | Prog [5]: 29 | STR [5]: 87 | VAP [5]: 55 | VCL [5]: 92 | VSL [5]: 47 | ALH [6]: 5 | BCF [6]: 20 | LIN [6]: 50 | Motile [6]: 48 | Prog [6]: 18 | STR [6]: 87 | VAP [6]: 46 | VCL [6]: 81 | VSL [6]: 40 | ALH [7]: 7 | BCF [7]: 14 | LIN [7]: 42 | Motile [7]: 24 | Prog [7]: 2 | STR [7]: 70 | VAP [7]: 41 | VCL [7]: 69 | VSL [7]: 28 | ALH [8]: 5 | BCF [8]: 20 | LIN [8]: 50 | Motile [8]: 48 | Prog [8]: 20 | STR [8]: 85 | VAP [8]: 51 | VCL [8]: 87 | VSL [8]: 43 | ALH [9]: 4 | BCF [9]: 23 | LIN [9]: 55 | Motile [9]: 65 | Prog [9]: 46 | STR [9]: 88 | VAP [9]: 58 | VCL [9]: 94 | VSL [9]: 51 | ALH [10]: 5 | BCF [10]: 23 | LIN [10]: 53 | Motile [10]: 46 | Prog [10]: 30 | STR [10]: 88 | VAP [10]: 58 | VCL [10]: 99 | VSL [10]: 51 | ALH [11]: 7 | BCF [11]: 14 | LIN [11]: 43 | Motile [11]: 28 | Prog [11]: 3 | STR [11]: 69 | VAP [11]: 41 | VCL [11]: 68 | VSL [11]: 32 | ALH [12]: 6 | BCF [12]: 15 | LIN [12]: 43 | Motile [12]: 14 | Prog [12]: 3 | STR [12]: 70 | VAP [12]: 43 | VCL [12]: 71 | VSL [12]: 30
